# Test results from US20230285441A1, “TREATMENT OF C[…] AURANOFIN” (GEORGIA STATE UNIVERSITY RESEARCH FOUNDATION, INC., priority 2020, published 2023).
# Columns and labels:
# [1] = tested on: IL-6, IL-1β, TNFα and NF-kB; assay: mRNA expression of SARS-CoV-2-induced cytokines in Huh7 cells by qRT-PCR; format: cell-based, human
# [2] = tested on: SARS-CoV-2 (USA-WA1/2020); assay: SARS-CoV-2 infectivity titers in cell culture supernatants by plaque assay; format: cell-based; conditions: 4 µM auranofin, Huh7 cells, 48 hours after infection
# Huh7 cells = conditions: 0.1-10 µM for 48 hours, trypan blue
# [3] = 4 µM auranofin, SARS-CoV-2 infected Huh7 cells
structure (smiles),measurement,setting,value
"CC[P](CC)(CC)=[Au][S][C@@H]1OC(COC(C)=O)[C@@H](OC(C)=O)C(OC(C)=O)C1OC(C)=O (stereo partly drawn) [auranofin, 1-Thio-β-D-glucopyranosatotriethylphosphine gold-2,3,4,6-tetraacetate]",increase in TNF-α levels (mRNA),[1],absent
same,increase in the expression of IL-1β (mRNA),[1]; [3],no increase
same,increase in the expression of NF-kB (mRNA),[1]; [3],no increase
same,SARS-COV-2 infectivity titers in cell culture supernatants,[2],significantly reduced
same,cytotoxic concentration of 50%,Huh7 cells,approximately 5.7 µM
